# Experimental data: ChEMBL document CHEMBL1275576, “In vitro activity of tomopenem (CS-023/RO4908463) against anaerobic bacteria” (Antimicrob Agents Chemother, 2009)
# How the values were obtained:
# Assay type in all cases: functional
# [1] = tested on: Staphylococcus saccharolyticus; test: Antimicrobial activity against Staphylococcus saccharolyticus ATCC 14953 by agar dilution method in presence of 5% laked sheep blood
# [2] = tested on: Campylobacter ureolyticus; test: Antimicrobial activity against Bacteroides ureolyticus NCTC 10941 by agar dilution method in presence of 5% laked sheep blood
# Eggerthella lenta = test: Antimicrobial activity against Eggerthella lenta ATCC 25559 by agar dilution method in presence of 5% laked sheep blood
# [3] = tested on: Bacteroides thetaiotaomicron; test: Antimicrobial activity against Bacteroides thetaiotaomicron by agar dilution method in presence of 5% laked sheep blood
# Fusobacterium nucleatum [4] = test: Antimicrobial activity against Fusobacterium nucleatum by agar dilution method in presence of 5% laked sheep blood
# [5] = tested on: Peptostreptococcus anaerobius; test: Antimicrobial activity against Peptostreptococcus anaerobius by agar dilution method in presence of 5% laked sheep blood
# [6] = tested on: Enterocloster clostridioformis; test: Antimicrobial activity against Clostridium clostridioforme NCTC 11224 by agar dilution method in presence of 5% laked sheep blood
# Prevotella sp. = test: Antimicrobial activity against Prevotella sp. by agar dilution method in presence of 5% laked sheep blood
# Hoylesella oralis = test: Antimicrobial activity against Prevotella oralis ATCC 33269 by agar dilution method in presence of 5% laked sheep blood
# Cutibacterium acnes = test: Antimicrobial activity against Propionibacterium acnes ATCC 11828 by agar dilution method in presence of 5% laked sheep blood
# [7] = tested on: Porphyromonas asaccharolytica; test: Antimicrobial activity against Porphyromonas asaccharolyticus by agar dilution method in presence of 5% laked sheep blood
# Eubacterium limosum = test: Antimicrobial activity against Eubacterium limosum by agar dilution method in presence of 5% laked sheep blood
# Bacteroides fragilis [8] = test: Antimicrobial activity against Bacteroides fragilis GAI 7955 by agar dilution method in presence of 5% laked sheep blood
# Lacticaseibacillus casei = test: Antimicrobial activity against Lactobacillus casei subsp. casei JCM 1134 by agar dilution method in presence of 5% laked sheep blood
# Clostridioides difficile = test: Antimicrobial activity against Clostridium difficile by agar dilution method in presence of 5% laked sheep blood
# Bacteroides fragilis [9] = test: Antimicrobial activity against carbapenemase-producing Bacteroides fragilis GAI 30144 by agar dilution method in presence of 5% laked sheep blood
# Clostridium perfringens = test: Antimicrobial activity against Clostridium perfringens by agar dilution method in presence of 5% laked sheep blood
# Clostridium septicum = test: Antimicrobial activity against Clostridium septicum ATCC 12464 by agar dilution method in presence of 5% laked sheep blood
# Anaerococcus prevotii = test: Antimicrobial activity against Anaerococcus prevotii ATCC 9321 by agar dilution method in presence of 5% laked sheep blood
# Finegoldia magna = test: Antimicrobial activity against Finegoldia magna by agar dilution method in presence of 5% laked sheep blood
# Lactobacillus brevis = test: Antimicrobial activity against Lactobacillus brevis subsp. brevis JCM 1059 by agar dilution method in presence of 5% laked sheep blood; conditions: Levilactobacillus brevis
# [10] = tested on: Desulfovibrio desulfuricans; test: Antimicrobial activity against Desulfovibrio desulfuricans by agar dilution method in presence of 5% laked sheep blood
# Schaalia odontolytica = test: Antimicrobial activity against Actinomyces odontolyticus GAI 91002 by agar dilution method in presence of 5% laked sheep blood
# Veillonella parvula = test: Antimicrobial activity against Veillonella parvula ATCC 10790 by agar dilution method in presence of 5% laked sheep blood
# Prevotella intermedia = test: Antimicrobial activity against Prevotella intermedia by agar dilution method in presence of 5% laked sheep blood
# [11] = tested on: Lactobacillus acidophilus; test: Antimicrobial activity against Lactobacillus acidophilus JCM 1132 by agar dilution method in presence of 5% laked sheep blood
# Bilophila wadsworthia = test: Antimicrobial activity against Bilophila wadsworthia WAL 7959 by agar dilution method in presence of 5% laked sheep blood
# Bacteroides fragilis [12] = test: Antimicrobial activity against Bacteroides fragilis GAI 10150 by agar dilution method in presence of 5% laked sheep blood
# [13] = Antimicrobial activity against Veillonella dispar ATCC 17748 by agar dilution method in presence of 5% laked sheep blood
# Fusobacterium varium = test: Antimicrobial activity against Fusobacterium varium by agar dilution method in presence of 5% laked sheep blood
# Bacteroides uniformis [14] = test: Antimicrobial activity against Bacteroides uniformis ATCC 8492 by agar dilution method in presence of 5% laked sheep blood
# [15] = tested on: Streptococcus intermedius; test: Antimicrobial activity against Streptococcus intermedius ATCC 27335 by agar dilution method in presence of 5% laked sheep blood
# Parvimonas micra = test: Antimicrobial activity against Parvimonas micra by agar dilution method in presence of 5% laked sheep blood
# Bacteroides uniformis [16] = test: Antimicrobial activity against Bacteroides uniformis by agar dilution method in presence of 5% laked sheep blood
# Bifidobacterium breve = test: Antimicrobial activity against Bifidobacterium breve ATCC 15700 by agar dilution method in presence of 5% laked sheep blood
# Bacteroides caccae = test: Antimicrobial activity against Bacteroides caccae by agar dilution method in presence of 5% laked sheep blood
# Bacteroides stercoris = test: Antimicrobial activity against Bacteroides stercoris by agar dilution method in presence of 5% laked sheep blood
# [17] = tested on: Fusobacterium necrophorum; test: Antimicrobial activity against Fusobacterium necrophorum by agar dilution method in presence of 5% laked sheep blood
# Fusobacterium mortiferum = test: Antimicrobial activity against Fusobacterium mortiferum by agar dilution method in presence of 5% laked sheep blood
# [18] = tested on: Prevotella melaninogenica; test: Antimicrobial activity against Prevotella melaninogenica JCM 6325 by agar dilution method in presence of 5% laked sheep blood; conditions: ATCC 25845
# Porphyromonas uenonis = test: Antimicrobial activity against Porphyromonas uenonis by agar dilution method in presence of 5% laked sheep blood
# Fusobacterium nucleatum [19] = test: Antimicrobial activity against Fusobacterium nucleatum ATCC 25586 by agar dilution method in presence of 5% laked sheep blood
# Odoribacter splanchnicus = test: Antimicrobial activity against Odoribacter splanchnicus by agar dilution method in presence of 5% laked sheep blood
# Fusobacterium sp. = test: Antimicrobial activity against Fusobacterium sp. by agar dilution method in presence of 5% laked sheep blood
smiles,measurement,setting,value
CC(=N)N1CC[C@H](SC2=C(C(=O)O)N3C(=O)[C@H]([C@@H](C)O)[C@H]3C2)C1,MIC,[1],0.03 µg/mL
same,MIC,[2],0.25 µg/mL
same,MIC,Eggerthella lenta,2 µg/mL
same,MIC50,[3],0.5 µg/mL
same,MIC90,[3],2 µg/mL
same,MIC50,Fusobacterium nucleatum [4],0.125 µg/mL
same,MIC90,Fusobacterium nucleatum [4],2 µg/mL
same,MIC50,[5],0.125 µg/mL
same,MIC90,[5],1 µg/mL
same,MIC,[6],0.25 µg/mL
same,MIC50,Prevotella sp.,0.125 µg/mL
same,MIC90,Prevotella sp.,0.25 µg/mL
same,MIC,Hoylesella oralis,0.06 µg/mL
same,MIC,Cutibacterium acnes,0.125 µg/mL
same,MIC50,[7],0.06 µg/mL
same,MIC90,[7],0.06 µg/mL
same,MIC50,Eubacterium limosum,1 µg/mL
same,MIC90,Eubacterium limosum,2 µg/mL
same,MIC,Bacteroides fragilis [8],4 µg/mL
same,MIC,Lacticaseibacillus casei,0.5 µg/mL
same,MIC50,Clostridioides difficile,4 µg/mL
same,MIC90,Clostridioides difficile,8 µg/mL
same,MIC,Bacteroides fragilis [9],> 128 µg/mL
same,MIC50,Clostridium perfringens,0.03 µg/mL
same,MIC90,Clostridium perfringens,0.06 µg/mL
same,MIC,Clostridium septicum,≤ 0.015 µg/mL
same,MIC,Anaerococcus prevotii,0.125 µg/mL
same,MIC50,Finegoldia magna,0.25 µg/mL
same,MIC90,Finegoldia magna,0.5 µg/mL
same,MIC,Lactobacillus brevis,0.03 µg/mL
same,MIC50,[10],0.5 µg/mL
same,MIC90,[10],1 µg/mL
same,MIC,Schaalia odontolytica,0.5 µg/mL
same,MIC,Veillonella parvula,0.125 µg/mL
same,MIC50,Prevotella intermedia,0.06 µg/mL
same,MIC90,Prevotella intermedia,0.25 µg/mL
same,MIC,[11],0.25 µg/mL
same,MIC,Bilophila wadsworthia,0.5 µg/mL
same,MIC,Bacteroides fragilis [12],8 µg/mL
same,MIC,[13],0.06 µg/mL
same,MIC50,Fusobacterium varium,0.125 µg/mL
same,MIC90,Fusobacterium varium,2 µg/mL
same,MIC,Bacteroides uniformis [14],0.25 µg/mL
same,MIC,[15],0.25 µg/mL
same,MIC50,Parvimonas micra,0.125 µg/mL
same,MIC90,Parvimonas micra,0.125 µg/mL
same,MIC50,Bacteroides uniformis [16],1 µg/mL
same,MIC90,Bacteroides uniformis [16],4 µg/mL
same,MIC,Bifidobacterium breve,0.5 µg/mL
same,MIC50,Bacteroides caccae,1 µg/mL
same,MIC90,Bacteroides caccae,4 µg/mL
same,MIC50,Bacteroides stercoris,1 µg/mL
same,MIC90,Bacteroides stercoris,4 µg/mL
same,MIC50,[17],0.125 µg/mL
same,MIC90,[17],2 µg/mL
same,MIC50,Fusobacterium mortiferum,0.125 µg/mL
same,MIC90,Fusobacterium mortiferum,2 µg/mL
same,MIC,[18],0.06 µg/mL
same,MIC50,Porphyromonas uenonis,0.06 µg/mL
same,MIC90,Porphyromonas uenonis,0.06 µg/mL
same,MIC,Fusobacterium nucleatum [19],1 µg/mL
same,MIC50,Odoribacter splanchnicus,1 µg/mL
same,MIC90,Odoribacter splanchnicus,4 µg/mL
same,MIC50,Fusobacterium sp.,0.125 µg/mL
same,MIC90,Fusobacterium sp.,2 µg/mL
C[C@@H](O)[C@H]1C(=O)N2C(C(=O)O)=C(S[C@@H]3CN[C@H](CNS(N)(=O)=O)C3)[C@H](C)[C@H]12 [DORIPENEM],MIC,[1],0.06 µg/mL
same,MIC,[2],0.06 µg/mL
same,MIC,Eggerthella lenta,0.25 µg/mL
same,MIC50,[3],0.5 µg/mL
same,MIC90,[3],1 µg/mL
same,MIC50,Fusobacterium nucleatum [4],0.03 µg/mL
same,MIC90,Fusobacterium nucleatum [4],0.25 µg/mL
same,MIC50,[5],0.25 µg/mL
same,MIC90,[5],2 µg/mL
same,MIC,[6],0.25 µg/mL
same,MIC50,Prevotella sp.,0.06 µg/mL
same,MIC90,Prevotella sp.,0.125 µg/mL
same,MIC,Hoylesella oralis,0.06 µg/mL
same,MIC,Cutibacterium acnes,1 µg/mL
same,MIC50,[7],0.03 µg/mL
same,MIC90,[7],0.06 µg/mL
same,MIC50,Eubacterium limosum,0.25 µg/mL
same,MIC90,Eubacterium limosum,0.25 µg/mL
same,MIC,Bacteroides fragilis [8],2 µg/mL
same,MIC,Lacticaseibacillus casei,1 µg/mL
same,MIC50,Clostridioides difficile,2 µg/mL
same,MIC90,Clostridioides difficile,4 µg/mL
same,MIC,Bacteroides fragilis [9],> 128 µg/mL
same,MIC50,Clostridium perfringens,0.03 µg/mL
same,MIC90,Clostridium perfringens,0.06 µg/mL
same,MIC,Clostridium septicum,0.06 µg/mL
same,MIC,Anaerococcus prevotii,0.25 µg/mL
same,MIC50,Finegoldia magna,0.125 µg/mL
same,MIC90,Finegoldia magna,0.25 µg/mL
same,MIC,Lactobacillus brevis,0.125 µg/mL
same,MIC50,[10],0.125 µg/mL
same,MIC90,[10],0.25 µg/mL
same,MIC,Schaalia odontolytica,0.25 µg/mL
same,MIC,Veillonella parvula,0.06 µg/mL
same,MIC50,Prevotella intermedia,0.06 µg/mL
same,MIC90,Prevotella intermedia,0.125 µg/mL
same,MIC,[11],0.125 µg/mL
same,MIC,Bilophila wadsworthia,0.06 µg/mL
same,MIC,Bacteroides fragilis [12],2 µg/mL
same,MIC,[13],0.06 µg/mL
same,MIC50,Fusobacterium varium,0.03 µg/mL
same,MIC90,Fusobacterium varium,0.25 µg/mL
same,MIC,Bacteroides uniformis [14],0.25 µg/mL
same,MIC,[15],0.125 µg/mL
same,MIC50,Parvimonas micra,0.06 µg/mL
same,MIC90,Parvimonas micra,0.125 µg/mL
same,MIC50,Bacteroides uniformis [16],0.5 µg/mL
same,MIC90,Bacteroides uniformis [16],4 µg/mL
same,MIC,Bifidobacterium breve,1 µg/mL
same,MIC50,Bacteroides caccae,0.5 µg/mL
same,MIC90,Bacteroides caccae,4 µg/mL
same,MIC50,Bacteroides stercoris,0.5 µg/mL
same,MIC90,Bacteroides stercoris,4 µg/mL
same,MIC50,[17],0.03 µg/mL
same,MIC90,[17],0.25 µg/mL
same,MIC50,Fusobacterium mortiferum,0.03 µg/mL
same,MIC90,Fusobacterium mortiferum,0.25 µg/mL
same,MIC,[18],0.125 µg/mL
same,MIC50,Porphyromonas uenonis,0.03 µg/mL
same,MIC90,Porphyromonas uenonis,0.06 µg/mL
same,MIC,Fusobacterium nucleatum [19],4 µg/mL
same,MIC50,Odoribacter splanchnicus,0.5 µg/mL
same,MIC90,Odoribacter splanchnicus,4 µg/mL
same,MIC50,Fusobacterium sp.,0.03 µg/mL
same,MIC90,Fusobacterium sp.,0.25 µg/mL
